Experimental findings from US8735398B2 (Bristol-Myers Squibb Company, priority 2009, dated 2014) are described below.

Broadly, the EC50 is the concentration giving half of the maximal effect.

Where two headings read alike, the source gives them in different places. Where only a bound is given, the exact number is not on record here.

The test system of this experiment is HCV 1b genotype. Briefly: HCV replicon assay (HCV-neo replicon cells, wild-type). Conditions: HCV 1b genotype replicon. Format: cell-based, Hepatitis C virus. How it is done: An HCV Replicon assay was utilized in the present disclosure, and was prepared, conducted and validated as described in commonly owned PCT/US2006/022197 and in O'Boyle et al., Antimicrob. Agents Chemother, 49(4):1346-1353 (April 2005). Assay methods incorporating luciferase reporters have also been used as described (Apath.com).
HCV-neo replicon cells and replicon cells containing resistance substitutions in the NS5A region were used to test the currently described family of compounds.
The compounds were determined to have differing degrees of reduced inhibitory activity on cells containing mutations vs. the corresponding inhibitory potency against wild-type cells. Thus, the compounds of the present disclosure can be effective in inhibiting the function of the HCV NS5A protein and are understood to be as effective in combinations as previously described in application PCT/US2006/022197 and commonly owned WO 04/014852. It should be understood that the compounds of the present disclosure can inhibit multiple genotypes of HCV. […] In one embodiment, compounds of the present disclosure are inhibitory versus 1a, 1b, 2a, 2b, 3a, 4a, and 5a genotypes.
Background: Replicon systems follow genome replication, usually without infectious particles.

Setting [1] is: Hepatitis C virus, class symbol, read-out: EC50 Range against HCV 1b.
Where [2] appears, read: class symbol, read-out: EC50 Range against HCV 1b.

As to `CN(C)C(C(=O)N1CCC[C@H]1C(=O)Nc1ccc(-c2cnc(-c3ccc(NC(=O)[C@@H]4CCCN4C(=O)C(c4ccc(F)cc4F)N(C)C)cc3)o2)cc1)c1ccc(F)cc1F` (stereo partly drawn) [Example D-5, (2S,2′S)-N,N′-(2,5-oxazolediyldi-4,1-phenylene)bis[1-[(2,4-difluorophenyl)(dimethylamino)acetyl]-2-pyrrolidinecarboxamide]], under setting [1], the EC50 was below 4.57 nM.
On the same count and under the same terms, then `CN1CCN(C(C(=O)N2CCC[C@H]2C(=O)Nc2ccc(-c3cnc(-c4ccc(NC(=O)[C@@H]5CCCN5C(=O)C(c5ccccc5)N5CCN(C)CC5)cc4)o3)cc2)c2ccccc2)CC1` (stereo partly drawn) [Example D-8, (2S,2′S)-N,N′-(1,3-oxazole-2,5-diyldi-4,1-phenylene)bis(1-((4-methyl-1-piperazinyl)(phenyl)acetyl)-2-pyrrolidinecarboxamide)], with 4.57 to 99 nM.
As to `CC(C)n1c(=O)n(CC(=O)N2CCC[C@H]2C(=O)Nc2ccc(-c3cnc(-c4ccc(NC(=O)[C@@H]5CCCN5C(=O)Cn5c(=O)n(C(C)C)c6cc(F)c(F)cc65)cc4)o3)cc2)c2cc(F)c(F)cc21` [Example D-9, (2S,2′S)-N,N′-(4,4′-(oxazole-2,5-diyl)bis(4,1-phenylene))bis(1-(2-(5,6-difluoro-3-isopropyl-2-oxo-2,3-dihydro-1H-benzo[d]imidazol-1-yl)acetyl)pyrrolidine-2-carboxamide)], the EC50 is, setting by setting: under setting [2], 1000 to 10000 nM; (read-out: EC50 1b) 3330 nM.
As to `O=C(Nc1ccc(-c2cnc(-c3ccc(NC(=O)[C@@H]4CCCN4C(=O)C(O)c4nccs4)cc3)o2)cc1)[C@@H]1CCCN1C(=O)C(O)c1nccs1` (stereo partly drawn) [Example D-10, (2S,2′S)-N,N′-(1,3-oxazole-2,5-diyldi-4,1-phenylene)bis(1-(hydroxy(1,3-thiazol-2-yl)acetyl)-2-pyrrolidinecarboxamide)], the EC50 under setting [1] lay within 100 to 999 nM.
Turning to `Cn1ccnc1C(O)C(=O)N1CCC[C@H]1C(=O)Nc1ccc(-c2cnc(-c3ccc(NC(=O)[C@@H]4CCCN4C(=O)C(O)c4nccn4C)cc3)o2)cc1` (stereo partly drawn) [Example D-11, (2S,2′S)-N,N′-(4,4′-(oxazole-2,5-diyl)bis(4,1-phenylene))bis(1-(2-hydroxy-2-(1-methyl-1H-imidazol-2-yl)acetyl)pyrrolidine-2-carboxamide)], the concentration for a half-maximal effect (EC50) is, setting by setting: under setting [2], 1000 to 10000 nM; (read-out: EC50 1b) 2090 nM.
In the same order, the values of `CCOC(=O)c1cc(C(O)C(=O)N2CCC[C@H]2C(=O)Nc2ccc(-c3cnc(-c4ccc(NC(=O)[C@@H]5CCCN5C(=O)C(O)c5c[nH]c(C(=O)OCC)c5)cc4)o3)cc2)c[nH]1` (stereo partly drawn) [Example D-12, diethyl 4,4′-(2,2′-(2S,2′S)-2,2′-(4,4′-(oxazole-2,5-diyl)bis(4,1-phenylene))bis(azanediyl)bis(oxomethylene)bis(pyrrolidine-2,1-diyl)bis(1-hydroxy-2-oxoethane-2,1-diyl))bis(1H-pyrrole-2-carboxylate)] are 1000 to 10000 nM and 2360 nM.
Regarding `O=C(Nc1ccc(-c2cnc(-c3ccc(NC(=O)[C@@H]4CCCN4C(=O)C(O)c4ccccn4)cc3)o2)cc1)[C@@H]1CCCN1C(=O)C(O)c1ccccn1` (stereo partly drawn) [Example D-14, (2S,2′S)-N,N′-(1,3-oxazole-2,5-diyldi-4,1-phenylene)bis(1-(hydroxy(2-pyridinyl)acetyl)-2-pyrrolidinecarboxamide)], the EC50 under setting [1] was 100 to 999 nM.
Turning to `O=C(Nc1ccc(-c2cnc(-c3ccc(NC(=O)[C@@H]4CCCN4C(=O)C(O)c4c[nH]c5ncccc45)cc3)o2)cc1)[C@@H]1CCCN1C(=O)C(O)c1c[nH]c2ncccc12` (stereo partly drawn) [Example D-15, (2S,2′S)-N,N′-(4,4′-(oxazole-2,5-diyl)bis(4,1-phenylene))bis(1-(2-hydroxy-2-(1H-pyrrolo[2,3-b]pyridin-3-yl)acetyl)pyrrolidine-2-carboxamide)], the EC50 was 1000 to 10000 nM under setting [2] and 6830 nM (read-out: EC50 1b).
As to `O=C(Nc1ccc(-c2cnc(-c3ccc(NC(=O)[C@@H]4CCCN4C(=O)C(O)c4c[nH]c5cnccc45)cc3)o2)cc1)[C@@H]1CCCN1C(=O)C(O)c1c[nH]c2cnccc12` (stereo partly drawn) [Example D-17, (2S,2′S)-N,N′-(4,4′-(oxazole-2,5-diyl)bis(4,1-phenylene))bis(1-(2-hydroxy-2-(1H-pyrrolo[2,3-c]pyridin-3-yl)acetyl)pyrrolidine-2-carboxamide)], the EC50 under setting [2] was 1000 to 10000 nM and the EC50 (read-out: EC50 1b) is 6820 nM.
In the same order, the values of `C[C@H](O)[C@@H](NC(=O)c1ccccc1)C(=O)N1CCC[C@H]1C(=O)Nc1ccc(-c2cnc(-c3ccc(NC(=O)[C@@H]4CCCN4C(=O)[C@H](NC(=O)c4ccccc4)[C@H](C)O)cc3)o2)cc1` [Example D-18, (R,S,2S,2′S)-N,N′-(4,4′-(oxazole-2,5-diyl)bis(4,1-phenylene))bis(1-((2R,3S)-2-benzamido-3-hydroxybutanoyl)pyrrolidine-2-carboxamide)] are 1000 to 10000 nM and 5960 nM.
`CN(C)CC(Oc1ccc(Cl)cc1)C(=O)N1CCC[C@H]1C(=O)Nc1ccc(-c2cnc(-c3ccc(NC(=O)[C@@H]4CCCN4C(=O)C(CN(C)C)Oc4ccc(Cl)cc4)cc3)o2)cc1` (stereo partly drawn) [Example D-19, (2S,2′S)-N,N′-(1,3-oxazole-2,5-diyldi-4,1-phenylene)bis(1-(2-(4-chlorophenoxy)-3-(dimethylamino)propanoyl)-2-pyrrolidinecarboxamide)]: under setting [1], the EC50 was in the range of 100 to 999 nM.
Consider `O=C(Nc1ccc(-c2cnc(-c3ccc(NC(=O)[C@@H]4CCCN4C(=O)CC4CC4)cc3)o2)cc1)C1CCCN1C(=O)CC1CC1` (stereo partly drawn) [Example D-20, (2′S)-N,N′-(1,3-oxazole-2,5-diyldi-4,1-phenylene)bis(1-(cyclopropylacetyl)-2-pyrrolidinecarboxamide)], for which the EC50 under setting [1] was in the range of 100 to 999 nM.
For `O=C(Nc1ccc(-c2cnc(-c3ccc(NC(=O)[C@@H]4CCCN4C(=O)C4CCCCN4Cc4ccccc4)cc3)o2)cc1)[C@@H]1CCCN1C(=O)C1CCCCN1Cc1ccccc1` (stereo partly drawn) [Example D-21, (2S,2′S)-N,N′-(1,3-oxazole-2,5-diyldi-4,1-phenylene)bis(1-((1-benzyl-2-piperidinyl)carbonyl)-2-pyrrolidinecarboxamide)], the EC50 under setting [1] was in the range of 1000 to 10000 nM.
Turning to `O=C(Nc1ccc(-c2cnc(-c3ccc(NC(=O)[C@@H]4CCCN4C(=O)C4CCCCN4CC4CCCCC4)cc3)o2)cc1)[C@@H]1CCCN1C(=O)C1CCCCN1CC1CCCCC1` (stereo partly drawn) [Example D-22, (2S,2′S)-N,N′-(1,3-oxazole-2,5-diyldi-4,1-phenylene)bis(1-((1-(cyclohexylmethyl)-2-piperidinyl)carbonyl)-2-pyrrolidinecarboxamide)], under setting [1], the EC50 lay in the range of 100 to 999 nM.
Turning to `CC1(C(=O)N2CCC[C@H]2C(=O)Nc2ccc(-c3cnc(-c4ccc(NC(=O)[C@@H]5CCCN5C(=O)C5(C)CCC(=O)N5Cc5ccccc5)cc4)o3)cc2)CCC(=O)N1Cc1ccccc1` (stereo partly drawn) [Example D-23, (2S,2′S)-N,N′-(1,3-oxazole-2,5-diyldi-4,1-phenylene)bis(1-((1-benzyl-2-methyl-5-oxo-2-pyrrolidinyl)carbonyl)-2-pyrrolidinecarboxamide)], under setting [1], the EC50 was 1000 to 10000 nM.
On to `CC1(C(=O)N2CCC[C@H]2C(=O)Nc2ccc(-c3cnc(-c4ccc(NC(=O)[C@@H]5CCCN5C(=O)C5(C)CCC(=O)N5)cc4)o3)cc2)CCC(=O)N1` (stereo partly drawn) [Example D-24, (2S,2′S)-N,N′-(4,4′-(oxazole-2,5-diyl)bis(4,1-phenylene))bis(1-(2-methyl-5-oxopyrrolidine-2-carbonyl)pyrrolidine-2-carboxamide)], for which the EC50 runs as follows: under setting [2], 1000 to 10000 nM; (read-out: EC50 1b) 5140 nM.
Turning to `CC1(C)CC(C)(C(=O)N2CCC[C@H]2C(=O)Nc2ccc(-c3cnc(-c4ccc(NC(=O)[C@@H]5CCCN5C(=O)C5(C)CC(C)(C)C(=O)N5)cc4)o3)cc2)NC1=O` (stereo partly drawn) [Example D-25, (2S,2′S)-N,N′-(4,4′-(oxazole-2,5-diyl)bis(4,1-phenylene))bis(1-(2,4,4-trimethyl-5-oxopyrrolidine-2-carbonyl)pyrrolidine-2-carboxamide)], the EC50 under setting [2] was 1000 to 10000 nM and the EC50 (read-out: EC50 1b) is 5330 nM.
In the same order, the values of `O=C(Nc1ccc(-c2cnc(-c3ccc(NC(=O)[C@@H]4CCCN4C(=O)[C@@H]4C[C@@H]5C[C@@H]5N4C(=O)c4ccc(Cl)cc4Cl)cc3)o2)cc1)[C@@H]1CCCN1C(=O)[C@@H]1C[C@@H]2C[C@@H]2N1C(=O)c1ccc(Cl)cc1Cl` [Example D-26, (S,S,S,2S,2′S)-N,N′-(4,4′-(oxazole-2,5-diyl)bis(4,1-phenylene))bis(1-((1S,3S,5S)-2-(2,4-dichlorobenzoyl)-2-azabicyclo[3.1.0]hexane-3-carbonyl)pyrrolidine-2-carboxamide)] are 1000 to 10000 nM and 3330 nM.
Regarding `CC(C)(C)OC(=O)N1CCCC1C(=O)N1CCCC1C(=O)Nc1ccc(-c2cnc(-c3ccc(NC(=O)C4CCCN4C(=O)C4CCCN4C(=O)OC(C)(C)C)cc3)o2)cc1` [Example D-27, di-tert-butyl (2S,2′S)-2,2′-(1,3-oxazole-2,5-diylbis(4,1-phenylenecarbamoyl(2S)-2,1-pyrrolidinediylcarbonyl))di(1-pyrrolidinecarboxylate)], under setting [2], the EC50 was in the range of 1000 to 10000 nM.
Same read-out and setting: then `CC(C)(C)OC(=O)N1CCCC1C(=O)N1CCCC1C(=O)Nc1ccc(-c2cnc(-c3ccc(NC(=O)C4CCCN4C(=O)C4CCCN4C(=O)OC(C)(C)C)cc3)o2)cc1` [Example D-28, di-tert-butyl (2R,2′R)-2,2′-(1,3-oxazole-2,5-diylbis(4,1-phenylenecarbamoyl(2S)-2,1-pyrrolidinediylcarbonyl))di(1-pyrrolidinecarboxylate)], with 1000 to 10000 nM.
